Patent US20230285601A1, “NON DEGRADABLE RADIO-OPAQUE EMBOLISATION MICROSPHERE” (GUERBET, priority 2019, published 2023)

Key:
[1] = Loading of anticancer drugs on the radiopaque microspheres; type: physicochemical
Protocol: The tests of loading and controlled release of anticancer drugs were performed on radiopaque microspheres of 100-300 µm sterilized by autoclaving and comprising or not comprising an ionized or ionizable monomer such as methacrylic acid.
The microspheres with methacrylic acid are microspheres from batch 13, the composition of which is given in example 3. The microspheres without methacrylic acid have the same composition as the microspheres from batches L1 and L1Bis described in example 5.
Loading with doxorubicin: the target for loading is 37.5 mg of doxorubicin per ml of microspheres. For this, 3.8 mL of doxorubicin-HCl (Adriblastine®, Pfizer) in solution in water at 2.5 mg/mL is added to 250 µL of wet sediment of microspheres. After mixing by inversion, the suspension is made up to 6 mM with sodium bicarbonate (Lavoisier). Loading is carried out at room temperature and with stirring for one hour. Measurement of the residual amount of doxorubicin (absorbance at 490 nm) present in the supernatants serves for determining the amount of drug loaded on the microspheres.
Loading with irinotecan: the loading target is 50 mg of irinotecan per mL of microspheres. […] After 30 minutes, measurement of the residual amount of irinotecan (absorbance at 370 nm) in the supernatant serves for determining the amount loaded on the microspheres.
Loading with sunitinib: The sediments of the radiopaque microspheres are incubated for 1 h at room temperature in 10 mL of sunitinib in the form of malate (LC Laboratories) at 1 mg/mL in water. […] After stirring for 1 h on a wheel, measurement of the residual amount of sunitinib (absorbance at 405 nm) in the supernatant serves for determining the amount loaded on the microspheres.
Loading with vandetanib: The sediments of the radiopaque microspheres are incubated for 2 h at room temperature in 10 mL of a water/DMSO (1/1) mixture containing 5 mg of vandetanib (LC Laboratories). The residual amount of vandetanib in the supernatants is measured at 254 nm in order to calculate the amount loaded on the microspheres. […]

[2] = Release in vitro of anticancer drugs from the radiopaque microspheres; type: physicochemical; conditions: for Time for 50% release / Time for complete release / % elution at 1 h: microspheres with methacrylic acid, 37° C., 150 rpm; for % elution at 1 h: pH 7.4 buffer
Protocol: To study the release of doxorubicin from the microspheres, the sediments are washed in 10 mL of water, before adding 50 mL of buffer 50 mM Tris-HCl, 0.9% NaCl, pH 7.4. Incubation takes place at 37° C. with stirring. The release of doxorubicin is measured at different times at 490 nm.
To study the release of irinotecan, the microspheres are washed in 10 mL of water, and then 50 mL of PBS (10 mM Na2HPO4, 1.8 mM KH2PO4, 138 mM NaCl, 2.7 mM KCl, pH 7.4) equilibrated at 37° C. is added. The release of the drug over time is measured by reading the absorbance at 370 nm.
To study the release of sunitinib, the microspheres are washed in 10 mL of water, and then 50 mL of PBS equilibrated at 37° C. is added. The release of the drug over time is measured by reading the absorbance at 405 nm.
To study the release of vandetanib, the microspheres are washed in 10 mL of water, and then 50 mL of PBS equilibrated at 37° C. is added. The release of the drug over time is measured by reading the absorbance at 254 nm.

[3] = 100-300 µm radiopaque microspheres with methacrylic acid (batch 13)

Loading (mg of drug / mL of wet sediment) [1, 3] | Loading (mg of drug / mL of wet sediment) ([1]; 100-300 µm radiopaque microspheres without methacrylic acid) | Release (elution in PBS), in words ([2]; compared with irinotecan) | Time for 50% release [2] | Time for complete release [2] | % elution at 1 h [2] | SMILES
36.8 mg of drug / mL of wet sediment | 29.8 mg of drug / mL of wet sediment | slower, being spread over several days | 1 days | 1 week | 26% | COc1cccc2c1C(=O)c1c(O)c3c(c(O)c1C2=O)C[C@@](O)(C(=O)CO)C[C@@H]3O[C@H]1C[C@H](N)[C@H](O)[C@H](C)O1 [Doxorubicin, doxorubicin]
46 mg of drug / mL of wet sediment |  |  | 0.042 days | 1 days | 50% | CCc1c2c(nc3ccc(OC(=O)N4CCC(N5CCCCC5)CC4)cc13)-c1cc3c(c(=O)n1C2)COC(=O)[C@]3(O)CC [Irinotecan, irinotecan]
